Reference: patent publication US20120244226A1, “TREATMENT COMPOSITION AND METHOD” (DEC INTERNATIONAL NZ LIMITED, priority 2009, published 2012)
“Also recorded” adds a separate entry of the source.

Key:
[1] = tested on: tumor necrosis factor-α (TNF-α) produced by LPS activated neutrophils; experiment: TNF-α production by LPS activated neutrophils (ELISA); type: cell-based, rat
Experimental: (§1) The anti-inflammatory properties of the cationic fraction, IDP, and the combination of IDP with chondroitin and glucosamine were determined by measuring their ability to inhibit the production of the inflammatory compounds, tumor necrosis factor-α (TNF-α) and interleukin-6 (IL-6) produced by LPS activated neutrophils. […] Neutrophils were isolated from rat blood and incubated in the presence of LPS. LPS is derived from bacterial cell walls and is used to mimic a 'bacterial infection'. […] Two of these cytokine are TNF-α and IL-6. The concentrations of both cytokines produced by neutrophils exposed to LPS and the various test substances are summarised graphically in FIGS. 1 and 2 respectively. […] Aliquots from each set of triplicates were combined, and duplicates assayed for cytokine concentrations. The plate blank was subtracted from each individual data point. A VersaMax 96-well plate reader was used to colorimetrically assess the production of TNF-α and IL-6 as determined by the ELISA, using Rat TNF-α ELISA kit, R&D Systems, Cat # RTA00, and Rat IL-6 ELISA kit, R&D Systems, Cat # […]. The average cytokine concentration, standard deviation and standard error were calculated for each data set (sample and concentration). Preliminary statistical significance was assessed using independent Student t-tests at α≦0.05.

[2] = tested on: interleukin-6 (IL-6) produced by LPS activated neutrophils; experiment: IL-6 production by LPS activated neutrophils (ELISA); type: cell-based, rat; details: for inhibition of IL-6 production / effect on IL-6, in words: over the concentrations tested; for inhibition of IL-6 production: concentration not given
Experimental: as §1

[3] = Rattus norvegicus, Neutrophil, 1 μg/ml, relative to LPS only control
[4] = Rattus norvegicus, Neutrophil, 10 μg/ml, relative to LPS only control
[5] = Rattus norvegicus, Neutrophil, 100 μg/ml, relative to LPS only control
[6] = 300 μg/ml, relative to LPS only control
[7] = Rattus norvegicus, Neutrophil, 300 μg/ml, relative to LPS only control
[8] = Rattus norvegicus, Neutrophil, 4 μg/ml, relative to LPS only control
[9] = Rattus norvegicus, Neutrophil, 12 μg/ml, relative to LPS only control
[10] = Rattus norvegicus, Neutrophil, read-out: TNF-α % Inhibition
[11] = Rattus norvegicus, Neutrophil, read-out: IL-6 % Inhibition

Structure (SMILES): O=C(O)Cc1ccccc1Nc1c(Cl)cccc1Cl [Diclofenac]
- dose response on TNF-α, in words [1]: inverse dose response
- TNF-α ([1]; 1 μg/ml): 132.01 pg/mL
- TNF-α % Inhibition ([1]; 1 μg/ml, relative to LPS only control): 52.1%
- TNF-α ([1]; 10 μg/ml): 151.97 pg/mL
- TNF-α ([1]; 100 μg/ml): 342.46 pg/mL
- effect on TNF-α, in words ([1]; 100 μg/ml): appeared to stimulate TNF-α
- TNF-α ([1]; 100 μg/ml, listed as Voltaren (Diclofenac)): 342 pg/mL
- inhibition at 1 µg/mL [1, 3]: 52%
- inhibition at 10 µg/mL [1, 4]: 44.8%
- inhibition at 100 µg/mL [1, 5]: -24.4%
- dose response on IL-6, in words [2]: inverse dose response
- IL-6 ([2]; 1 μg/ml): 78.39 pg/mL
- IL-6 ([2]; 10 μg/ml): 90.55 pg/mL
- IL-6 ([2]; 100 μg/ml): 185.71 pg/mL
- inhibition at 1 µg/mL [2, 3]: 73.6%
- inhibition at 10 µg/mL [2, 4]: 69.5%
- inhibition at 100 µg/mL [2, 5]: 37.4%
- inhibition of IL-6 production ([2]; listed as Voltaren (Diclofenac)): 74-38%

Structure (SMILES): CC(=O)Oc1ccccc1C(=O)O [Aspirin, acetylsalicylic acid]
- dose response on TNF-α, in words [1]: characteristic dose response
- TNF-α ([1]; 100 μg/ml): 159.17 pg/mL
- TNF-α ([1]; 300 μg/ml): 99.45 pg/mL
- TNF-α % Inhibition [1, 6]: 63.9%
- inhibition at 100 µg/mL [1, 5]: 42.2%
- inhibition at 300 µg/mL [1, 7]: 64%
- effect on TNF-α, in words ([1]; over the concentrations tested): reducing both TNF-α and IL-6 levels significantly
- dose response on IL-6, in words [2]: characteristic dose response
- IL-6 ([2]; 100 μg/ml): 63.2 pg/mL
- IL-6 ([2]; 300 μg/ml): 0 pg/mL
- IL-6 % Inhibition [2, 6]: completely inhibited
- inhibition at 100 µg/mL [2, 5]: 78.7%
- inhibition at 300 µg/mL [2, 7]: 100%
- effect on IL-6, in words [2]: reducing both TNF-α and IL-6 levels significantly

Structure (SMILES): COc1cc(/C=C/C(=O)CC(=O)/C=C/c2ccc(O)c(OC)c2)ccc1O [Curcumin, curcumin]
- dose response on TNF-α, in words [1]: no apparent dose effect
- TNF-α ([1]; 4 μg/ml): 146.71 pg/mL
- TNF-α ([1]; 12 μg/ml): 180.66 pg/mL
- inhibition at 4 µg/mL [1, 8]: 46.7%
- inhibition at 12 µg/mL [1, 9]: 34.4%
- inhibition of TNF-α production ([1]; over the concentrations tested, concentration not given): approximately 50%
- dose response on IL-6, in words [2]: no apparent dose effect
- IL-6 ([2]; 4 μg/ml): 38.65 pg/mL
- IL-6 ([2]; 12 μg/ml): 31.14 pg/mL
- inhibition at 4 µg/mL [2, 8]: 87%
- inhibition at 12 µg/mL [2, 9]: 89.5%
- effect on IL-6, in words [2]: close to complete inhibition
- inhibition of IL-6 production [2]: 90%

Structure (SMILES): CCN(CC)CCCC(C)Nc1ccnc2cc(Cl)ccc12 (stereo not shown) [Chloroquine]
- TNF-α ([1]; 50 μM): 0 pg/mL
- TNF-α ([1]; 100 μM): 0 pg/mL
- inhibition at 50 µM [1, 10]: 100%
- inhibition at 100 µM [1, 10]: 100%
- effect on TNF-α, in words ([1]; over the concentrations tested): completely inhibiting; also recorded: completely inhibited
- IL-6 ([2]; 50 μM): 0 pg/mL
- IL-6 ([2]; 100 μM): 0 pg/mL
- inhibition at 50 µM [2, 11]: 100%
- inhibition at 100 µM [2, 11]: 100%
- effect on IL-6, in words [2]: completely inhibiting; also recorded: completely inhibited
